{"source": "the NIST ThermoML archive (doi:10.1016/j.fluid.2012.08.016)", "assay": "xn = mol fraction of the nth substance listed", "conditions": "Liquid, Vibrating tube method, x2 = 0.667", "note": "Numbers after ± are expanded uncertainties."}
{"compound": "C[N+](C)(C)CCO.[Cl-]", "note": "[choline chloride] + OCC(O)CO", "values": [{"measurement": "mass density", "setting": "298.15 K, 100 kPa", "value": "1192.1 ± 2.6", "unit": "kg/m3"}, {"measurement": "mass density", "setting": "298.15 K, 5000 kPa", "value": "1193.6 ± 2.7", "unit": "kg/m3"}, {"measurement": "mass density", "setting": "298.15 K, 10000 kPa", "value": "1195 ± 2.7", "unit": "kg/m3"}, {"measurement": "mass density", "setting": "298.15 K, 15000 kPa", "value": "1196.3 ± 2.7", "unit": "kg/m3"}, {"measurement": "mass density", "setting": "298.15 K, 20000 kPa", "value": "1197.7 ± 2.7", "unit": "kg/m3"}, {"measurement": "mass density", "setting": "298.15 K, 25000 kPa", "value": "1199.1 ± 2.7", "unit": "kg/m3"}, {"measurement": "mass density", "setting": "298.15 K, 30000 kPa", "value": "1200.4 ± 2.8", "unit": "kg/m3"}, {"measurement": "mass density", "setting": "298.15 K, 35000 kPa", "value": "1201.7 ± 2.8", "unit": "kg/m3"}, {"measurement": "mass density", "setting": "298.15 K, 40000 kPa", "value": "1203 ± 2.8", "unit": "kg/m3"}, {"measurement": "mass density", "setting": "298.15 K, 45000 kPa", "value": "1204.3 ± 2.8", "unit": "kg/m3"}, {"measurement": "mass density", "setting": "298.15 K, 50000 kPa", "value": "1205.6 ± 2.9", "unit": "kg/m3"}, {"measurement": "mass density", "setting": "303.15 K, 100 kPa", "value": "1189.2 ± 2.6", "unit": "kg/m3"}, {"measurement": "mass density", "setting": "303.15 K, 5000 kPa", "value": "1190.7 ± 2.7", "unit": "kg/m3"}, {"measurement": "mass density", "setting": "303.15 K, 10000 kPa", "value": "1192.1 ± 2.7", "unit": "kg/m3"}, {"measurement": "mass density", "setting": "303.15 K, 15000 kPa", "value": "1193.5 ± 2.7", "unit": "kg/m3"}, {"measurement": "mass density", "setting": "303.15 K, 20000 kPa", "value": "1194.8 ± 2.7", "unit": "kg/m3"}, {"measurement": "mass density", "setting": "303.15 K, 25000 kPa", "value": "1196.2 ± 2.7", "unit": "kg/m3"}, {"measurement": "mass density", "setting": "303.15 K, 30000 kPa", "value": "1197.6 ± 2.8", "unit": "kg/m3"}, {"measurement": "mass density", "setting": "303.15 K, 35000 kPa", "value": "1198.9 ± 2.8", "unit": "kg/m3"}, {"measurement": "mass density", "setting": "303.15 K, 40000 kPa", "value": "1200.2 ± 2.8", "unit": "kg/m3"}, {"measurement": "mass density", "setting": "303.15 K, 45000 kPa", "value": "1201.5 ± 2.8", "unit": "kg/m3"}, {"measurement": "mass density", "setting": "303.15 K, 50000 kPa", "value": "1202.8 ± 2.8", "unit": "kg/m3"}, {"measurement": "mass density", "setting": "308.15 K, 100 kPa", "value": "1186.2 ± 2.6", "unit": "kg/m3"}, {"measurement": "mass density", "setting": "308.15 K, 5000 kPa", "value": "1187.7 ± 2.6", "unit": "kg/m3"}, {"measurement": "mass density", "setting": "308.15 K, 10000 kPa", "value": "1189.2 ± 2.7", "unit": "kg/m3"}, {"measurement": "mass density", "setting": "308.15 K, 15000 kPa", "value": "1190.6 ± 2.7", "unit": "kg/m3"}, {"measurement": "mass density", "setting": "308.15 K, 20000 kPa", "value": "1192 ± 2.7", "unit": "kg/m3"}, {"measurement": "mass density", "setting": "308.15 K, 25000 kPa", "value": "1193.3 ± 2.7", "unit": "kg/m3"}, {"measurement": "mass density", "setting": "308.15 K, 30000 kPa", "value": "1194.7 ± 2.7", "unit": "kg/m3"}, {"measurement": "mass density", "setting": "308.15 K, 35000 kPa", "value": "1196 ± 2.8", "unit": "kg/m3"}, {"measurement": "mass density", "setting": "308.15 K, 40000 kPa", "value": "1197.4 ± 2.8", "unit": "kg/m3"}, {"measurement": "mass density", "setting": "308.15 K, 45000 kPa", "value": "1198.7 ± 2.8", "unit": "kg/m3"}, {"measurement": "mass density", "setting": "308.15 K, 50000 kPa", "value": "1200 ± 2.8", "unit": "kg/m3"}, {"measurement": "mass density", "setting": "313.15 K, 100 kPa", "value": "1183.4 ± 2.6", "unit": "kg/m3"}, {"measurement": "mass density", "setting": "313.15 K, 5000 kPa", "value": "1184.9 ± 2.6", "unit": "kg/m3"}, {"measurement": "mass density", "setting": "313.15 K, 10000 kPa", "value": "1186.3 ± 2.7", "unit": "kg/m3"}, {"measurement": "mass density", "setting": "313.15 K, 15000 kPa", "value": "1187.7 ± 2.7", "unit": "kg/m3"}, {"measurement": "mass density", "setting": "313.15 K, 20000 kPa", "value": "1189.1 ± 2.7", "unit": "kg/m3"}, {"measurement": "mass density", "setting": "313.15 K, 25000 kPa", "value": "1190.5 ± 2.7", "unit": "kg/m3"}, {"measurement": "mass density", "setting": "313.15 K, 30000 kPa", "value": "1191.9 ± 2.7", "unit": "kg/m3"}, {"measurement": "mass density", "setting": "313.15 K, 35000 kPa", "value": "1193.3 ± 2.8", "unit": "kg/m3"}, {"measurement": "mass density", "setting": "313.15 K, 40000 kPa", "value": "1194.6 ± 2.8", "unit": "kg/m3"}, {"measurement": "mass density", "setting": "313.15 K, 45000 kPa", "value": "1195.9 ± 2.8", "unit": "kg/m3"}, {"measurement": "mass density", "setting": "313.15 K, 50000 kPa", "value": "1197.2 ± 2.8", "unit": "kg/m3"}, {"measurement": "mass density", "setting": "318.15 K, 100 kPa", "value": "1180.5 ± 2.6", "unit": "kg/m3"}, {"measurement": "mass density", "setting": "318.15 K, 5000 kPa", "value": "1182 ± 2.6", "unit": "kg/m3"}, {"measurement": "mass density", "setting": "318.15 K, 10000 kPa", "value": "1183.5 ± 2.7", "unit": "kg/m3"}, {"measurement": "mass density", "setting": "318.15 K, 15000 kPa", "value": "1184.9 ± 2.7", "unit": "kg/m3"}, {"measurement": "mass density", "setting": "318.15 K, 20000 kPa", "value": "1186.3 ± 2.7", "unit": "kg/m3"}, {"measurement": "mass density", "setting": "318.15 K, 25000 kPa", "value": "1187.7 ± 2.7", "unit": "kg/m3"}, {"measurement": "mass density", "setting": "318.15 K, 30000 kPa", "value": "1189.1 ± 2.7", "unit": "kg/m3"}, {"measurement": "mass density", "setting": "318.15 K, 35000 kPa", "value": "1190.4 ± 2.8", "unit": "kg/m3"}, {"measurement": "mass density", "setting": "318.15 K, 40000 kPa", "value": "1191.8 ± 2.8", "unit": "kg/m3"}, {"measurement": "mass density", "setting": "318.15 K, 45000 kPa", "value": "1193.1 ± 2.8", "unit": "kg/m3"}, {"measurement": "mass density", "setting": "318.15 K, 50000 kPa", "value": "1194.4 ± 2.8", "unit": "kg/m3"}, {"measurement": "mass density", "setting": "323.15 K, 100 kPa", "value": "1177.7 ± 2.6", "unit": "kg/m3"}, {"measurement": "mass density", "setting": "323.15 K, 5000 kPa", "value": "1179.2 ± 2.6", "unit": "kg/m3"}, {"measurement": "mass density", "setting": "323.15 K, 10000 kPa", "value": "1180.6 ± 2.6", "unit": "kg/m3"}, {"measurement": "mass density", "setting": "323.15 K, 15000 kPa", "value": "1182.1 ± 2.7", "unit": "kg/m3"}, {"measurement": "mass density", "setting": "323.15 K, 20000 kPa", "value": "1183.5 ± 2.7", "unit": "kg/m3"}, {"measurement": "mass density", "setting": "323.15 K, 25000 kPa", "value": "1184.9 ± 2.7", "unit": "kg/m3"}, {"measurement": "mass density", "setting": "323.15 K, 30000 kPa", "value": "1186.3 ± 2.7", "unit": "kg/m3"}, {"measurement": "mass density", "setting": "323.15 K, 35000 kPa", "value": "1187.7 ± 2.7", "unit": "kg/m3"}, {"measurement": "mass density", "setting": "323.15 K, 40000 kPa", "value": "1189.1 ± 2.8", "unit": "kg/m3"}, {"measurement": "mass density", "setting": "323.15 K, 45000 kPa", "value": "1190.4 ± 2.8", "unit": "kg/m3"}, {"measurement": "mass density", "setting": "323.15 K, 50000 kPa", "value": "1191.7 ± 2.8", "unit": "kg/m3"}]}
